Test results: patent US20190374563A1, “TREATMENT OF KLEBSIELLA PNEUMONIAE INFECTIONS WITH ANTIBACTERIAL AMINOGLYCOSIDE COMPOUNDS” (Achaogen, Inc., priority 2009, published 2019)
≈ marks a conversion by molar mass, not a printed value. Like-named read-outs stand apart in the source and are kept apart here.

Assays:
P. aeruginosa ATCC 27853 = assay: murine septicemia model of infection; format: in vivo; conditions: mice, single SC or IV dose 1 hour after IP challenge, mortality for 7 days; ED50 values are mg/kg
Method: (§1) Two models were run on each compound, using E. coli and P. aeruginosa QC bacterial strains. Both studies employed the same design. […] At 1 hour after bacterial challenge, the mice received a single SC or IV dose of vehicle or test substance to assess in vivo anti-infective activity. Mortality was recorded once daily for 7 days after bacterial inoculation.

E. coli ATCC 25922 = assay: murine septicemia model of infection; format: in vivo; conditions: mice, single SC or IV dose 1 hour after IP challenge, mortality for 7 days; ED50 values are mg/kg
Method: as §1

[1] = test system: multidrug-resistant (MDR) K. pneumoniae isolates (n = 102); assay: MIC by microdilution, clinical isolates; format: cell-based; conditions: for MIC50 / MIC90 / S (%), susceptible isolates: Total MDR K. pneumoniae isolates (n = 102); for MIC50: read-out: MIC50; for S (%), susceptible isolates: CLSI criteria, tigecycline US FDA criteria
Method: (§2) The in vitro activity of representative antibacterial aminoglycoside compounds against a collection of 102 K. pneumoniae clinical isolates collected from January 2006 to October 2007 at the University of Pittsburgh Medical Center, and three Cleveland institutions including University Hospitals Case Medical Center, the Cleveland Clinic, and the Louis Stokes Department of Veterans Affairs Medical Center was analyzed. The 102 K. pneumoniae isolates were selected based on a multidrug-resistant (MDR) phenotype (i.e., resistance to >3 antibiotic classes). Twenty-five isolates were KPC carbapenemase producing (KPC-Kp), and were part of a previous study where the β-lactamase background and clonality were characterized (see Endimiani, A., A. M. Hujer, F. Perez, C. R. Bethel, K. M. Hujer, J. Kroeger, M. Oethinger, D. L. Paterson, M. D. Adams, M. R. Jacobs, D. J. Diekema, G. S. Hall, S. G. Jenkins, L. B. Rice, F. C. Tenover, and R. A. Bonomo. 2009. Characterization of blaKPC-containing Klebsiella pneumoniae isolates detected in different institutions in the Eastern USA. J Antimicrob Chemother 63:427-37).
(§3) Minimum inhibitory concentrations (MICs) were performed by microdilution method using cation-adjusted Mueller-Hinton broth, according to the Clinical and Laboratory Standards Institute (CLSI) criteria (see CLSI. 2006. Methods for dilution antimicrobial susceptibility tests for bacteria that grow aerobically; approved standard-Seventh edition. Clinical and Laboratory Standard Institute, Wayne, Pa. CLSI document M7-A7). These MIC assays were conducted following the same protocol as set forth in Example 110. […] The following ATCC control strains were used: Escherichia coli ATCC 25922, Pseudomonas aeruginosa ATCC 27853, and K. pneumoniae ATCC 700603.

[2] = test system: K. pneumoniae producing KPC (n = 25); assay: MIC by microdilution, clinical isolates; format: cell-based; conditions: for S (%), susceptible isolates / MIC50 / MIC90: K. pneumoniae producing KPC (n = 25); for S (%), susceptible isolates: CLSI criteria, tigecycline US FDA criteria; for MIC50: read-out: MIC50; for MIC90: read-out: MIC90
Method: as §2, §3

[3] = test system: P. aeruginosa ATCC 27853 (APAE001); assay: MIC assay, CLSI broth microdilution; format: cell-based; conditions: Pseudomonas aeruginosa
Outline: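 CLSI M7-A7 broth microdilution; 2-fold serial dilutions in Mueller Hinton Broth, 1:1 with inoculum; final 5×10^5 CFU/mL; 35° C., 20 h, ambient air. QC strains E. coli ATCC 25922, P. aeruginosa ATCC 27853, S. aureus ATCC 29213.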

[4] = Klebsiella pneumoniae, read-out: MIC90

SMILES	ED50/MIC P. aeruginosa (P. aeruginosa ATCC 27853)	ED50/MIC E. Coli (E. coli ATCC 25922)	MIC50 ([1]; Klebsiella pneumoniae) [µg/mL]	MIC90 [1, 4] [µg/mL]	MIC50 ([2]; Klebsiella pneumoniae) [µg/mL]	MIC90 ([2]; Klebsiella pneumoniae) [µg/mL]	other results
NCC[C@H](O)C(=O)N[C@@H]1C[C@H](N)[C@@H](O[C@H]2O[C@H](CN)[C@@H](O)[C@H](O)[C@H]2O)[C@H](O)[C@H]1O[C@H]1O[C@H](CO)[C@@H](O)[C@H](N)[C@H]1O [Amikacin, amikacin]	13	1.5	2 (≈ 3.42 µM)	32 (≈ 54.6 µM)	32 (≈ 54.6 µM)	32 (≈ 54.6 µM)	isolates fully resistant (MICs of 64 μg/ml) ([1]; MDR K. pneumoniae isolates (n = 102)): five; S (%), susceptible isolates [1]: 78.4%; S (%), susceptible isolates ([1]; listed as amikacin): 78%; S (%), susceptible isolates [2]: 48.0%; S (%), susceptible isolates ([2]; listed as amikacin): 48%
NCC[C@H](O)C(=O)N[C@@H]1C[C@H](N)[C@@H](O[C@H]2O[C@H](CN)CC[C@H]2N)[C@H](O)[C@H]1O[C@H]1O[C@H](CO)[C@@H](O)[C@H](N)[C@H]1O [Arbekacin, arbekacin]			4 (≈ 7.24 µM)	16 (≈ 29 µM)	8 (≈ 14.5 µM)	16 (≈ 29 µM)	MIC ([2]; Klebsiella pneumoniae, all KPC-Kp strains, read-out: MICs of all strains): < 32 µg/mL
CC(C)(O/N=C(\C(=O)N[C@@H]1C(=O)N2C(C(=O)[O-])=C(C[n+]3ccccc3)CS[C@H]12)c1csc(N)n1)C(=O)O [Ceftazidime, ceftazidime]			> 32	> 32	> 32	> 32	MIC90 [1]: >32 µg/mL; S (%), susceptible isolates [1]: 9.8%; S (%), susceptible isolates [2]: 0.0%
CN[C@@H]1[C@@H](O)[C@@H](O[C@@H]2[C@@H](O)[C@H](O[C@H]3OC(CNCC4CCNCC4)=CC[C@H]3N)[C@@H](N)C[C@H]2NC(=O)[C@@H](O)CN)OC[C@]1(C)O [Example 15, 6′-(Methyl-piperidin-4-yl)-1-(3-amino-2(S)-hydroxy-propionyl)-sisomicin]	1	<1					MIC ([3]; ATCC27853, read-out: MIC APAE001): 1 to 16 µg/mL (≈ 1.58 to 25.3 µM)
CN[C@@H]1[C@@H](O)[C@@H](O[C@@H]2[C@@H](O)[C@H](O[C@H]3OC(CNCCO)=CC[C@H]3N)[C@@H](N)C[C@H]2NC(=O)[C@@H](O)CN)OC[C@]1(C)O [Example 16, 6′-(2-Hydroxy-ethyl)-1-(3-amino-2(S)-hydroxy-propionyl)-sisomicin]	3	1					
CN[C@@H]1[C@@H](O)[C@@H](O[C@@H]2[C@@H](O)[C@H](O[C@H]3OC(CNCCCN)=CC[C@H]3N)[C@@H](N)C[C@H]2NC(=O)[C@@H](O)CN)OC[C@]1(C)O [Example 17, 6′-(3-Amino-propyl)-1-(3-amino-2(S)-hydroxy-propionyl)-sisomicin]	5	1					MIC ([3]; Table 1, APAE001 is ATCC27853, read-out: MIC APAE001): 1 to 16 µg/mL (≈ 1.69 to 27 µM)
CN[C@@H]1[C@@H](O)[C@@H](O[C@@H]2[C@@H](O)[C@H](O[C@H]3OC(CNCC(O)CN)=CC[C@H]3N)[C@@H](N)C[C@H]2NC(=O)[C@@H](O)CN)OC[C@]1(C)O (stereo partly drawn) [Example 22, 6′-(3-Amino-2-hydroxy-propyl)-1-(3-amino-2(S)-hydroxy-propionyl)-sisomicin]	8	1					
CN[C@@H]1[C@@H](O)[C@@H](O[C@@H]2[C@@H](O)[C@H](O[C@H]3OC(CNCCCN)=CC[C@H]3N)[C@@H](N)C[C@H]2NC(=O)C2(O)CNC2)OC[C@]1(C)O [Example 57]	14	2					
